Test [1] addresses Human FXIIa (Homo sapiens (Human), UniProt P00748). In words: Factor XIIa (FXIIa) inhibitory activity, chromogenic substrate (Pefachrome XIIa) cleavage. It counts as biochemical. The conditions noted are these: 10 min pre-incubation, Pefachrome XIIa 400 μM.
For test [2], the target named is Human alpha-thrombin (Homo sapiens (Human), UniProt P00734). In words: Thrombin counterscreen for selectivity, fluorogenic substrate cleavage. The test is classed as biochemical. As to conditions: 10 min pre-incubation, Boc-Val-Pro-Arg-AMC 20 μM. (Counterscreens check selectivity or assay interference.)
Test [3] deals with Collagen-Induced Arthritis (CIA) in DBA/1 Mice. In words: Collagen-Induced Arthritis (CIA) in DBA/1 mice, model of rheumatoid arthritis. The test is classed as in vivo, mouse. From the text: For in vivo confirmation of efficacy, Example 35 was studied in a model of rheumatoid arthritis. Collagen-Induced Arthritis (CIA) in DBA/1 Mice is one of the most commonly used animal models of human rheumatoid arthritis. The joint inflammation which develops in CIA resembles inflammation in human patients with rheumatoid arthritis. Therapeutic agents that reduce rheumatoid arthritis in people (e.g. NSAIDs, corticosteroids, methotrexate, etc) are also efficacious in CIA, and efficacy in the mouse CIA model has excellent predictive value for efficacy in rheumatoid arthritis. CIA is induced by immunization with type II collagen emulsified in Complete Freund's Adjuvant, followed by a booster immunization with type II collagen emulsified in incomplete Freund's Adjuvant. Three to four weeks after immunization, inflammation develops in mouse paws, Treatment is initiated at, the time of immunization and continues for 6 weeks. […] CIA is scored blind, by a person unaware of both treatment and of previous scores for each animal. The animal's score is the total of all four paw scores on scale of 0-16, where each paw is scored as follows: 0 Normal paw; 1 One toe inflamed and swollen; 2 More than one toe, but not entire paw, inflamed and swollen, or mild swelling of entire paw; 3 Entire paw inflamed and swollen; 4 Very inflamed and swollen paw or ankylosed paw.

Human FXIIa, sequence (P00748 373-615): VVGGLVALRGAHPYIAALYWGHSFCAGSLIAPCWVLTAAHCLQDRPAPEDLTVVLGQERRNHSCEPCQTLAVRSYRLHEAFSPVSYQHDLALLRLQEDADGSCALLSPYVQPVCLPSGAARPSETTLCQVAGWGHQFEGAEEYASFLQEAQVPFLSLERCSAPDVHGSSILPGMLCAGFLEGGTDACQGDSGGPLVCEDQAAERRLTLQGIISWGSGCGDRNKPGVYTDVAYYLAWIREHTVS
Human FXIIa, sequence (P00748 20-372 partner): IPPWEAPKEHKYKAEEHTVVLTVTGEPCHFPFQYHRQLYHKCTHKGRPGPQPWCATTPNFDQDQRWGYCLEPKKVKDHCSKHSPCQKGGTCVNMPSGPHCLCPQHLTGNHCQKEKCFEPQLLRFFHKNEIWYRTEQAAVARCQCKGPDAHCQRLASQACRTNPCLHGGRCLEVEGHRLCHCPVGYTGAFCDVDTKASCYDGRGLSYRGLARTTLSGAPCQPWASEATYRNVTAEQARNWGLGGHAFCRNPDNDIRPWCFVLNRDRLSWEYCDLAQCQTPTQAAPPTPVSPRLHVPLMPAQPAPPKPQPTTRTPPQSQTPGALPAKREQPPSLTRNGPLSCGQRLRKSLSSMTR

The term IC50 denotes the point on the concentration scale where inhibition reaches its midpoint. Low readings indicate higher potency, high ones lower potency. As for `Cc1cccc2c1NCCC2C(=O)n1nc2c(c1N)CCN(S(C)(=O)=O)C2` (single isomer, unassigned) [Example 35, (S*)-(3-amino-6-(methylsulfonyl)-4,5,6,7-tetrahydropyrazolo[3,4-c]pyridine-2-yl)(8-methyl-1,2,3,4-tetrahydroquinolin-4-yl)methanone], the half-inhibitory concentration (IC50) is 0.02 µM in test [1] and 18 µM in test [2]. In test [3] (CIA model), the “Effect on disease phenotype compared to placebo” value is recorded as “significantly ameliorated the disease phenotype compared to placebo”. Moreover, the “Maximum CIA score ± SD” value in test [3] (scale 0-16, p value 0.0175 vs vehicle) is listed as 5.6 ± 3.7.

The record behind these values is patent US11312723B2, “Pyranopyrazole and pyrazolopyridine immunomodulators for treatment of autoimmune diseases” (The Rockefeller University, priority 2017, dated 2022).
